In patent US9981906B2, “Trans-clomiphene metabolites and uses thereof” (Repros Therapeutics Inc., priority 2011, dated 2018):

How the values were obtained:
[1] = following a single dose; cited from earlier work
[2] = tested on: cryopreserved hepatocytes from Beagle dog; assay: Metabolite profile of Androxal in cryopreserved Beagle dog hepatocytes; format: in vitro ADME; settings: LC/MS
Description: (§1) A study was conducted to determine the metabolic profile of Androxal® in cryopreserved hepatocytes from Sprague-Dawley rat, Beagle dog, cynomolgus monkey, and human. The liver is the main site of drug metabolism and the full complement of hepatic drug metabolizing enzymes (including liver enzymes of the CYP P450 family) are maintained within the intact cell. Isolated liver hepatocytes constitute a physiologically relevant experimental model for the evaluation of liver-related drug properties such as metabolism. Cyropreservation of the hepatocytes greatly enhances their availability for studies.
(§2) Primary hepatocytes isolated from several donors for each animal species and five human donors were pooled according to species and cryopreserved. The hepatocytes were thawed, subjected to Percoll density gradient centrifugation to remove debris and counted to determine yield. Viability was measured using Trypan blue exclusion. The hepatocytes were diluted with CYP assay buffer (Krebs-Hensleit Buffer) to prepare a 2× cell suspension of 2.0×10^6 viable cells/ml. Aliquots of the 2× hepatocyte suspension (0.5 ml containing 1.0×10^6 cells) were transferred to appropriate wells for a final 1× cell density of 1.0×10^6 cells/well. All incubations were conducted at 37±1° C., 95% air/5% CO2, and saturating humidity in 12-well uncoated culture plates. […] The cultures were incubated for 1 and 4 hours. The sample size was N=2 replicates.
(§3) Matrix control samples were included as a source of background matrix components to aid in metabolite identification. Equal volumes of 2× hepatocyte suspension and CYP assay buffer without Androxal® were combined and incubated for 4 hours.
Chemical degradation control samples were included to evaluate the possibility of chemical degradation of Androxal® in the absence of cells. […]
(§4) The incubations were terminated as follows: Metabolic positive control incubations were terminated by adding an equal volume of methanol. All other incubations were terminated by placing the plates on ice. The contents of each well were mixed thoroughly and divided into five cryovials. An equal volume of organic solvent was added to one cryovial. The samples were either immediately analyzed or stored in cryovials at −70°±10 C until analysis.
(§5) All samples were analyzed by reverse-phase HPLC. A UV profile of the samples was obtained followed by liquid chromatography-mass spectrometry (LC/MS) analysis using a Micromass® Q-Tof-2 mass spectrometer capable of conducting accurate mass measurement. Preliminary metabolite identification was aided by the use of Metabolynx® software.
(§6) The relative amounts of Androxal and its metabolites after 1 and 4 hour incubations are reported below at Tables 1-4.

[3] = tested on: cryopreserved hepatocytes from cynomolgus monkey; assay: Metabolite profile of Androxal in cryopreserved cynomolgus monkey hepatocytes; format: in vitro ADME; settings: LC/MS
Description: as §1, §2, §3
(§7) Chemical degradation control samples were included to evaluate the possibility of chemical degradation of Androxal® in the absence of cells. Equal volumes of 2× Androxal® dosing solution (6 and 60 μM) and CYP buffer were combined and incubated for 1 and 4 hours.
as §4, §5, §6

[4] = tested on: cryopreserved hepatocytes from human; assay: Metabolite profile of Androxal in cryopreserved human hepatocytes; format: in vitro ADME; settings: LC/MS
Description: as §1, §2, §3, §7, §4, §5, §6

[5] = tested on: cryopreserved hepatocytes from Sprague-Dawley rat; assay: Metabolite profile of Androxal in cryopreserved Sprague-Dawley rat hepatocytes; format: in vitro ADME; settings: LC/MS
Description: as §1, §2, §3, §7, §4, §5, §6

[6] = incubations containing 3 μM Androxal for 1 hour
[7] = incubations containing 3 μM Androxal for 4 hours
[8] = incubations containing 30 μM Androxal for 4 hours
[9] = incubations containing 30 mM Androxal for 1 hour

Compound | residual blood levels [1] | relative amount, Beagle dog [2, 6] | relative amount, Beagle dog [2, 7] | relative amount, Beagle dog [2, 8] | relative amount, Cyno. monkey [3, 6] | relative amount, Cyno. monkey [3, 8] | relative amount, Cyno. monkey [3, 9] | relative amount, Human [4, 6] | relative amount, Human [4, 7] | relative amount, Human [4, 8] | relative amount, Human [4, 9] | relative amount, SD Rat [5, 8] | relative amount, SD Rat [5, 9] | relative amount, Beagle dog [2, 9] | relative amount, Cyno. monkey [3, 7] | relative amount, SD Rat [5, 6] | relative amount, SD Rat [5, 7] | relative amount, Beagle dog ([2]; incubations containing 30 μM Androxal for 4 hours, retention time 22.7) | relative amount, Beagle dog ([2]; incubations containing 30 μM Androxal for 4 hours, retention time 22.95)
CCN(CC)CCOc1ccc(/C(=C(/Cl)c2ccccc2)c2ccccc2)cc1 (single isomer, unassigned) [cis isomer, cis-clomiphene] | in excess of one month | – | – | – | – | – | – | – | – | – | – | – | – | – | – | – | – | – | –
CCNCCOc1ccc(/C(=C(/Cl)c2ccccc2)c2ccccc2)cc1 [C24H24NOCl, N-desethyl-trans-clomiphene] | – | 25.9 | 18.6 | 723.5 | 22.3 | 2175.0 | 1029.8 | 48.3 | 43.4 | 1262.4 | 699.8 | 673.8 | 336.6 | – | – | – | – | – | –
CCN(CC)CCOc1ccc(/C(=C(\Cl)c2ccccc2)c2ccccc2)cc1 [C26H28ClNO, trans-clomiphene] | – | 148.9 | 103.2 | 4989.3 | 279.1 | 2828.5 | 3166.4 | 625.8 | 285.4 | 4012.5 | 4297.8 | 3123.3 | 3166.8 | 6227.3 | 84.2 | 240.0 | 182.5 | – | –
CCN(CC)CCOc1ccc(/C(=C(/Cl)c2ccccc2)c2ccc(O)cc2)cc1 [C26H28NO2Cl, 4-hydroxy-trans-clomiphene] | – | 218.8 | 103.4 | – | 239.4 | – | – | 240.3 | 247.0 | – | – | – | 992.7 | 1535.2 | 43.4 | 100.9 | 31.1 | – | –
CCN(CC)CCOc1ccc(C(c2ccc(O)c(O)c2)C(Cl)c2ccccc2)cc1 (centres unmarked) [C26H30NO3Cl] | – | – | – | – | – | – | – | – | – | – | – | – | – | – | – | – | – | 65.9 | 43.7
